From patent US10711002B2, “Purine compounds and method for the treatment of cancer” (THE ROYAL INSTITUTION FOR THE ADVANCEMENT OF …, priority 2016, dated 2020)

Experiments:
[1] = test system: RENCA (renal adenocarcinoma); experiment: In vivo primary tumor growth, subcutaneous implant; design: species or system Balb/c mice
Text: In vivo studies were approved by McGill Animal Care Committee. Cells growing in exponential phase of growth (1×10^6 cells/mouse) were transplanted into the mammary fat pad of female SCID (MDA231/M) or Balb/c (4T1) mice. Mia-PaCa cells and RENCA cells were implanted subcutaneously in SCID or Balb/c mice respectively. When primary tumors became palpable mice were randomized and blindly assigned treatment groups. Treatment was given PO for 4 cycles (3 times a week: day 1, day 3, day 5) (n=8-10 mice per condition). Control mice received the vehicle alone (1% DMSO in physiologic solution). […] Tumor size was measured using a caliper. At the study termination (60-90 days) primary tumors were excised and weighted. The lungs were fixed in 10% Bouin's fixative and lung surface metastases were counted using a stereomicroscope.

cell mobility = experiment: Live cell locomotion assay; format: cell-based; conditions: moderate doses; 10 ng/mL EGF stimulation
Experimental: Cells were seeded at very low density on multi-well chambered coverglass (LabTek, Rochester, N.Y., USA). After starving, cells were stimulated with 10 ng/mL EGF and plated on a heated humidified stage supplied with 5% CO2. Phase contrast time-lapse images were captured every five minutes for three hours by optimized Nipkow spinning disk confocal microscope (WaveFx spinning disk, Quorum Technologies Inc, Guelph, ON, Canada). Cell motility was measured by tracing the cell periphery manually using Volocity software (Perkin Elmer, Waltham, Mass., USA).
To further confirm Compound 1's anti-metastatic potential, we conducted a live cell locomotion assay to quantify cell movement speed.

Compound	Primary tumor weight (% inhibition vs. control) ([1]; RENCA subcutaneous in Balb/c mice, PO)	renal adenocarcinoma cell (RENCA) growth in vivo ([1]; mouse, in vivo)	limitation of the rate of cell mobility (cell mobility)
O=c1c2ccccc2[se]n1-c1nc(N[C@H]2CC[Se]C2)c2nc[nH]c2n1 [Compound 4]	(34-55%)	able to inhibit	
O=c1c2ccccc2[se]n1-c1nc(NC2CCCCC2)c2nc[nH]c2n1 [Compound 1]			2-3 fold
